The source of these data is ChEMBL document CHEMBL3259776, “Discovery and optimization of indazoles as potent and selective interleukin-2 inducible T cell kinase (ITK) inhibitors” (Bioorg Med Chem Lett, 2014).

The target in data set [1] is T1, Tyrosine-protein kinase ITK/TSK (Homo sapiens, UniProt Q08881).
T1 sequence (Q08881 whole entry): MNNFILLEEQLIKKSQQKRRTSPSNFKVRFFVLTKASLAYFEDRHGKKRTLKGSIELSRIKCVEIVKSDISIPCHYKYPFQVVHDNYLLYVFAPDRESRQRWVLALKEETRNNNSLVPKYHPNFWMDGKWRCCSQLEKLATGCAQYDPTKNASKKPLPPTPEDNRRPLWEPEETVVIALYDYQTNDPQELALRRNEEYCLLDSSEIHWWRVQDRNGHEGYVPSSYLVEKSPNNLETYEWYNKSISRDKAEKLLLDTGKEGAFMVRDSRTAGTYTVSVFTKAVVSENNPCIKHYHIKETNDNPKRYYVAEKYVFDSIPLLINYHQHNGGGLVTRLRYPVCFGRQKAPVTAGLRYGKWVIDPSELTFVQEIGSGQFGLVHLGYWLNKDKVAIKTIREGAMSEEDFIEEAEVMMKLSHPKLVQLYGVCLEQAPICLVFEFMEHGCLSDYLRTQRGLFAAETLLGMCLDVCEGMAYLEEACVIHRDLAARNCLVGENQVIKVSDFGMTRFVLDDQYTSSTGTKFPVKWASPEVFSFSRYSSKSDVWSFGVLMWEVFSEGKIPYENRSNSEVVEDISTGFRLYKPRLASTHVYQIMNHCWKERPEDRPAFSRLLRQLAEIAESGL

Data set [2] is described as follows: Half life in rat at 1 mg/kg, iv. The data set is classed as ADME, organism-based. Set-up: dose 1 mg/kg, route intravenous. As to conditions: in vivo.
Data set [3] is described as follows: AUC in rat at 1 mg/kg, iv. The data set is classed as ADME, organism-based. Set-up: dose 1 mg/kg, route intravenous. As to conditions: plasma.
Data set [4] can be described thus: Oral bioavailability in rat at 5 mg/kg. It counts as ADME, organism-based. As to conditions: in vivo.
Data set [5] is described as follows: Clearance in rat at 1 mg/kg, iv. It counts as ADME, organism-based. Set-up: dose 1 mg/kg, route intravenous. As to conditions: in vivo.
The nature of data set [6]: Lipophilicity, log D of the compound at pH 7.4. As to conditions: buffer.
The nature of data set [7]: Half life in rat at 5 mg/kg, po. As to conditions: in vivo. It counts as ADME, organism-based. Set-up: dose 5 mg/kg, route oral.

As for `O=C(Nc1ncc(Cc2ccccc2)s1)c1n[nH]c2ccccc12`, the Ki (in general, a measure of affinity in units of concentration, obtained from inhibition or displacement) in data set [1] is over 4 nM.
Same read-out and setting: then `O=C(Nc1ncc(Cc2ccccc2)o1)c1n[nH]c2ccccc12`, with over 4 nM.
Regarding `CN(C)CC[C@@H](c1ccccc1)n1cc(NC(=O)c2n[nH]c3cc(-c4cn[nH]c4)ccc23)cn1`, the half-life (commonly the time in which the quantity being followed falls by half) in data set [2] was 5.7 h. Further, in data set [3], the AUC (in general, the area under the concentration-time curve, a measure of exposure) came out at 0.837 µM·h. Also, the bioavailability (as a rule, dose-corrected exposure relative to a reference, in per cent) in data set [4] amounted to 0%. Moreover, the clearance (commonly the rate of elimination divided by the concentration) in data set [5] was 44 mL/min/kg.
As to `CC(C)(O)[C@@H](c1ccccc1)n1cc(NC(=O)c2n[nH]c3cc(-c4cn[nH]c4)ccc23)cn1`, the results for the half-life in data set [2] and in data set [7] were 1.8 h and 2.6 h, respectively. In data set [3], this molecule registered an AUC of 2.5 µM·h. The logD – broadly, lipophilicity at a set pH, counting ionised and neutral species – in data set [6] was 3.4. Moreover, the bioavailability in data set [4] is 9%. Besides, the clearance in data set [5] came to 11 mL/min/kg.
